Laboratory results taken from paper PMC10980839 (Drug Design, Development and Therapy, 2024).
“Also recorded” adds a separate entry of the source.

Columns and labels:
[1] = test system: rat liver microsomes (RLMs); assay: Inhibitory effect of baohuoside I on tofacitinib metabolism in RLMs; type: in vitro ADME; settings: Lineweaver-Burk plot
[2] = cited from earlier work
[3] = test system: rat liver microsomes (RLMs); settings: tofacitinib 1-400 μM, 0.5 mg/mL RLMs, 1 mM NADPH, 37 °C, 30 min

Km [3]	SMILES	inhibition mechanism on tofacitinib metabolism [1]	plasma protein binding [2]	Vmax [3]
	COc1ccc(-c2oc3c(CC=C(C)C)c(O)cc(O)c3c(=O)c2O[C@@H]2O[C@@H](C)[C@H](O)[C@@H](O)[C@H]2O)cc1 [Baohuoside I]	a mixture of non-competitive and competitive inhibition; also recorded: a combination of non-competitive and competitive inhibition		
39.9 µM	C[C@@H]1CCN(C(=O)CC#N)C[C@@H]1N(C)c1ncnc2[nH]ccc12 [Tofacitinib]		about 40%	4.2824 ng/min/mg
